Laboratory results published in PMC3792137, “NMK-TD-100, a Novel Microtubule Modulating Agent, Blocks Mitosis and Induces Apoptosis in HeLa Cells by Binding to Tubulin” (PLoS ONE, 2013).

Molecular target: T1, tubulin (alpha/beta heterodimer)
T1 construct: tubulin purified from goat brain; with alpha-tubulin/beta-tubulin heterodimer
Assay: Ligand fluorescence enhancement titration (Scatchard, Job plot […]); tryptophan quenching gave Kd […]; polymerization IC50 […]
Type: binding, Capra hircus

## COc1cc(-c2nnc(-c3c[nH]c4ccccc34)s2)cc(OC)c1OC [NMK-TD-100]
  Kd: 1.26 ± 0.32 µM
